PMC6337383, “Discovery of Potent Inhibitors for the Large Neutral Amino Acid Transporter 1 (LAT1) by Structure-Based Methods” (International Journal of Molecular Sciences, 2018)
Values joined by “and” are separate entries in the source; they are usually repeats but may differ in a detail not shown here. Equal values may be shown once. “Also recorded” adds a separate entry of the source.

Biological target: T1, recombinant human LAT1 (Homo sapiens, UniProt Q01650)
T1 construct: made in house; host or cells: E. coli
Test: Inhibition of LAT1 mediated [3H]-His transport in proteoliposomes reconstituted with recombinant purified human LAT1
Assay type: biochemical
Set-up: Dose-response analysis, Mean / Dose-response analysis, single experiments: unit not given here
Conditions: for inhibition at 100 µM: 100 µM compound; for LAT1 inhibition, activity in words: 100 μM compound, [3H]-His uptake in proteoliposomes; for % Residual Activity: 100 µM concentration, n = 3, Table S6; for IC50: 5 μM [3H]-His, proteoliposomes containing 10 mM His, mean ± S.D., three experiments; for Dose-response analysis, single experiments: Exp. 1, Exp. 2, Exp. 3 in this order; for Dose-response analysis, Mean: mean of Exp. 1-3
Experimental: All 30 compounds were evaluated for their potency to inhibit LAT1 mediated histidine transport in proteoliposomes reconstituted with recombinant purified human LAT1 (see Methods). […]
Human LAT1 was over-expressed in E. coli and was purified as previously described. In brief, solubilized cell lysate was centrifuged (12,000× g, 10 min, 4 °C); supernatant was applied on a His-Trap HP column (5 mL Ni Sepharose) connected to ÄKTA start system. The column was equilibrated with 10 mL buffer (20 mM Tris HCl pH 8.0, 10% glycerol, 200 mM NaCl, 0.1% sarkosyl) prior to supernatant application. The column was washed with 10 mL buffer (20 mM Tris HCl pH 8.0, 10% glycerol, 200 mM NaCl, 0.05% DDM, and 2 mM DTE) and the protein was eluted with the same buffer plus 400 mM imidazole. Purified protein was desalted, in order to remove imidazole, using a PD-10 column in a buffer containing 20 mM Tris HCl pH 8.0, 10% glycerol, 0.05% DDM and 10 mM DTE.
The purified human LAT1 was reconstituted by detergent removal approach using the batch-wise method, as previously described. In brief, the initial mixture contained: 4 μg of purified protein, 100 μL of 10% C12E8, 100 μL of 10% egg yolk phospholipids (w/v) in the form of liposomes that were prepared as previously described, 20 mM Tris HCl pH 7.5, and 10 mM L-His in a final volume of 700 μL. This mixture was incubated with 0.5 g of Amberlite XAD-4 for 90 min at 23 °C, 1200 rpm to retain detergent.
To perform transport assays, the external substrate was removed by gel filtration chromatography: 600 μL of proteoliposomes were passed through a Sephadex G-75 column (0.7 cm diameter × 15 cm height) pre-equilibrated with 20 mM Tris HCl pH 7.5 and a concentration of sucrose to balance internal osmolarity. Transport was started adding 5 μM [^3H]-His to proteoliposomes and stopped after 30 min according to the stop inhibitor method, as previously described. In brief, in controls 1.5 µM HgCl2 was added at time zero and radioactivity was subtracted to samples for calculating net transport. After stopping the transport reaction, 100 μL of proteoliposomes was subjected to gel filtration chromatography using a Sephadex G-75 column (0.6 cm diameter × 8 cm height), to separate the external from the internal radioactivity. Proteoliposomes were eluted with 1 mL 50 mM NaCl in 4 mL scintillation mixture and counted. […] Protein concentration was estimated by Chemidoc imaging system1 [104] to calculate the human LAT1 specific activity.

T1 sequence (Q01650 whole entry): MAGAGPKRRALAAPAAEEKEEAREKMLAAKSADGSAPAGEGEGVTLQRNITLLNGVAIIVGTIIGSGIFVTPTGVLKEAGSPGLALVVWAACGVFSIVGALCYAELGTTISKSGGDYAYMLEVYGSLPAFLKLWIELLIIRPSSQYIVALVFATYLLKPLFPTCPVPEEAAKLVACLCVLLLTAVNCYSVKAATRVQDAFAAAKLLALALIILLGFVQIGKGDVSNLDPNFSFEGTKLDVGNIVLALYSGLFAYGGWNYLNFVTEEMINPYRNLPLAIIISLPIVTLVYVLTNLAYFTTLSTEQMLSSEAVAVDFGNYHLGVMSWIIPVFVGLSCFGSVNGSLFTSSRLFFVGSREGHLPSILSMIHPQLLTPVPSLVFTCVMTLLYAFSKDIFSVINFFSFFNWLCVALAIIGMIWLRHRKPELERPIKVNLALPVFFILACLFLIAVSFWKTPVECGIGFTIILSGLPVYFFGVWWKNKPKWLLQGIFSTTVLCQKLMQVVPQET

## NC(Cc1cccc(OCc2ccccc2)c1)C(=O)O (stereo not shown) [Compound 35]
  inhibition at 100 µM: 80 to 90%
  LAT1 inhibition, activity in words: highly active
  % Residual Activity: 11.78%

## N[C@@H](Cc1ccc(OCc2c(Cl)cccc2Cl)cc1)C(=O)O [Compound 38]
  inhibition at 100 µM: 80 to 90%
  % Residual Activity: 13.17%

## C=CCN(Cc1cccc(OCC(N)=O)c1)Cc1ccccc1C [Compound 15]
  % Residual Activity: 92.21%

## NC(CSCc1cccc2ccccc12)C(=O)O (stereo not shown) [Compound 33]
  inhibition at 100 µM: 80 to 90%
  LAT1 inhibition, activity in words: highly active
  % Residual Activity: 17.86%

## O=C(c1ccc2[nH]c(CO)nc2c1)N(Cc1ccco1)Cc1cccs1 [Compound 22]
  % Residual Activity: 93.36%

## CCCCN(Cc1ccsc1)C(=O)c1ccc(NS(=O)(=O)CC)cc1 [Compound 17]
  % Residual Activity: 94.75%

## Cc1sc2ccccc2c1CN1CCCn2nc(C(O)CO)cc2C1 (stereo not shown) [Compound 21]
  % Residual Activity: 85.14%

## CN(Cc1ccon1)C(C(=O)O)c1ccc(-n2cccn2)cc1 (stereo not shown) [Compound 23]
  % Residual Activity: 96.22%

## Cc1cc(OC(C)(C)C(=O)NCc2n[nH]c(=O)[nH]2)cc(C)c1Cl [Compound 20]
  % Residual Activity: 90.07%

## CCOc1ccccc1CN(Cc1cc(O)c(OC)cn1)C1CC1 [Compound 19]
  % Residual Activity: 93.06%

## Cc1cccnc1CN(C)C(C(=O)O)c1ccc(-n2cccn2)cc1 (stereo not shown) [Compound 26]
  % Residual Activity: 89.37%

## O=C(O)[C@@H]1C[C@H](n2cc(-c3ccccn3)nn2)CN1 [Compound 25]
  % Residual Activity: 94.12%

## NC1(C(=O)O)CCCC1Cc1ccc(Cl)cc1 (stereo not shown) [Compound 32]
  LAT1 inhibition, activity in words: moderately active; also recorded: modest affinity
  % Residual Activity: 53.11%

## Cc1nnc(-c2ccccc2-c2ccc(CNS(C)(=O)=O)cc2)o1 [Compound 14]
  % Residual Activity: 95.87%

## CN(Cc1cc(Br)cc(Br)c1N)C1CCCCC1 [Compound 29]
  % Residual Activity: 98.42%

## CN1CCCC(n2nc(Cc3ccc(Cl)cc3)c3ccccc3c2=O)CC1 (stereo not shown) [Compound 30]
  % Residual Activity: 94.08%

## O=C(O)CNC(=O)c1nc(Cl)c2ccccc2c1O [Compound 31]
  % Residual Activity: 91.83%

## N[C@@H](CSC(c1ccccc1)(c1ccccc1)c1ccccc1)C(=O)O [Compound 39]
  inhibition at 100 µM: 80 to 90%
  % Residual Activity: 11.76%

## N[C@@H](Cc1cccc(C(F)(F)F)c1)C(=O)O [Compound 41]
  inhibition at 100 µM: 80 to 90%
  % Residual Activity: 15.21%

## CC(C)COc1ccc(C(N)CC(=O)O)cc1 (stereo not shown) [Compound 27]
  LAT1 inhibition, activity in words: slightly active
  % Residual Activity: 67.96%

## N[C@@H](Cc1cn(Cc2ccccc2)cn1)C(=O)O [Compound 40]
  inhibition at 100 µM: 80 to 90%
  % Residual Activity: 11.34%

## CCOc1ccc(Cl)cc1C(C(=O)O)N(C)Cc1cnccn1 (stereo not shown) [Compound 24]
  % Residual Activity: 100.72%

## NC(Cc1cn(-c2ccccc2)nn1)C(=O)O (stereo not shown) [Compound 34]
  LAT1 inhibition, activity in words: slightly active
  % Residual Activity: 77.12%

## COc1ccc(CSCC(N)C(=O)O)cc1Br (stereo not shown) [Compound 28]
  IC50: 33.2 ± 4.5 µM
  inhibition at 100 µM: 80 to 100%
  LAT1 inhibition, activity in words: highly active
  % Residual Activity: 12.93%
0.1 [] M compound
  Dose-response analysis, single experiments: 98.56 and 118.69 and 87.20
  Dose-response analysis, Mean: 101.48
0.2 [] M compound
  Dose-response analysis, single experiments: 109.35 and 122.43 and 93.48
  Dose-response analysis, Mean: 108.42
0.5 [] M compound
  Dose-response analysis, single experiments: 112.59 and 110.90 and 85.27
  Dose-response analysis, Mean: 102.92
1 [] M compound
  Dose-response analysis, single experiments: 120.86 and 119.63 and 97.34
  Dose-response analysis, Mean: 112.61
2.5 [] M compound
  Dose-response analysis, single experiments: 84.89 and 85.98 and 94.20
  Dose-response analysis, Mean: 88.36
5 [] M compound
  Dose-response analysis, single experiments: 79.14 and 103.43 and 83.33
  Dose-response analysis, Mean: 88.63
10 [] M compound
  Dose-response analysis, single experiments: 96.40 and 89.72 and 73.19
  Dose-response analysis, Mean: 86.44
25 [] M compound
  Dose-response analysis, single experiments: 57.91 and 52.02 and 47.58
  Dose-response analysis, Mean: 52.51
50 [] M compound
  Dose-response analysis, Mean: 38.86
100 [] M compound
  Dose-response analysis, Mean: 24.50

## CCn1cnnc1C(C)NC(=O)c1ccc2[nH]c(=O)c(=O)[nH]c2c1 (stereo not shown) [Compound 16]
  % Residual Activity: 95.1%

## N[C@@H](CCc1cc(Cl)cc(Cl)c1)C(=O)O [Compound 36]
  IC50: 0.64 ± 0.12 µM
  inhibition at 100 µM: > 90%
  LAT1 inhibition, activity in words: highly active; also recorded: almost complete inhibition
  % Residual Activity: 0%
0.1 [] M compound
  Dose-response analysis, single experiments: 81.30 and 100.31 and 62.08
  Dose-response analysis, Mean: 81.23
0.2 [] M compound
  Dose-response analysis, Mean: 82.32
0.5 [] M compound
  Dose-response analysis, Mean: 45.71
1 [] M compound
  Dose-response analysis, single experiments: 38.13 and 55.14 and 40.82
  Dose-response analysis, Mean: 44.70
2.5 [] M compound
  Dose-response analysis, Mean: 28.38
5 [] M compound
  Dose-response analysis, Mean: 5.92
10 [] M compound
  Dose-response analysis, single experiments: 0.00
  Dose-response analysis, Mean: 0.00
25 [] M compound
  Dose-response analysis, Mean: 13.53
50 [] M compound
  Dose-response analysis, Mean: 2.08
100 [] M compound
  Dose-response analysis, Mean: 14.15
Ratio of IC50 values versus 1 (BCH)
  times more potent than 1: ~ 10

## N[C@@H](Cc1ccc2ccccc2n1)C(=O)O [Compound 37]
  LAT1 inhibition, activity in words: slightly active
  % Residual Activity: 65.31%

## N#Cc1c(-c2ccccc2-c2ccco2)cc(-c2cc(C(=O)O)[nH]n2)nc1N [Compound 13]
  % Residual Activity: 74.23%

## CCOc1ccc(Cl)cc1-c1cccc(OCC(N)=O)c1 [Compound 18]
  % Residual Activity: 90.14%
